Test results: publication PMC8216263 (Pharmaceutical Biology, 2021)
In brackets after ≈: the same amount, converted by molar mass. Where two headings read alike, the source gives them in different places.

Experiments:
[1] = target: T1, OAT1 (Homo sapiens, UniProt Q4U2R8); experiment: Inhibition of OAT1-mediated 14C-PAH uptake in MDCK-OAT1 cells; assay type: cell-based
T1 construct: host or cells: MDCK
T1 sequence (Q4U2R8 1-563): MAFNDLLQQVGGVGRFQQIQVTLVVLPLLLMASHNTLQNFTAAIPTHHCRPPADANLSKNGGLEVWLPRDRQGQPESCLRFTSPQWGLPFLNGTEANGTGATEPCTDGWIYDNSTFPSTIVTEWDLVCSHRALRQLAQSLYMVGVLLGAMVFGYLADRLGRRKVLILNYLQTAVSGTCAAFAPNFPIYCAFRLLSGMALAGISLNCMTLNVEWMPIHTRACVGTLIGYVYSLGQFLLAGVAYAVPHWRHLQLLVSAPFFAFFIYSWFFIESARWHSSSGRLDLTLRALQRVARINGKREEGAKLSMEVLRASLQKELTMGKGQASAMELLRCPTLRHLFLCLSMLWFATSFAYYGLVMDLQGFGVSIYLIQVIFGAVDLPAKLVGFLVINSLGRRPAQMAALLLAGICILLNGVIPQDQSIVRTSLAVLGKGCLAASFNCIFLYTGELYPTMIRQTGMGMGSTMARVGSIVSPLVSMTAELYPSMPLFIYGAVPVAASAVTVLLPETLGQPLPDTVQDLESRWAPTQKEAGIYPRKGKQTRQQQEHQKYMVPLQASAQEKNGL
Procedure: (§1) Cells were cultured in DMEM supplemented with 10% FBS, 100 units/mL penicillin and 100 units/mL streptomycin. […] Cell culture flasks, 24-well cell culture plates, and transwell polycarbonate inserts (12 mm diameter, 0.4 μm pore size) were purchased from Corning Co-star Corp. (Bedford, MA).
(§2) The MDCK-OAT1, S2-OAT3, S2-OCT2 and HEK293-OATP1B1 cell lines were utilized in this study. […] Briefly, S2-OAT3, S2-OCT2 and S2-mock cells were trypsinized and uniformly suspended in the culture medium’s designated volume to provide a density of 2.0 × 10^5 cells/mL. A 1.0-mL aliquot of the cell suspension was added into each well of 24-well insert plates. HEK293-OATP1B1, MDCK-OAT1 and their mock cells were seeded in 24-well plates at a density of 1.5 × 10^5 cells/well. […] Three washes terminated the experiment with ice-cold DPBS buffer after removing the incubation buffer. Cells were lysed with 400 μL of […] sodium hydroxide solution. The cell lysate and 3.0 mL of aquasol-2 scintillation fluid were put into a scintillation flask. […] The final concentration of DMSO in the assay was less than 0.1%. All experiments were performed in triplicate.

[2] = Single- and multiple-dose plasma pharmacokinetics of GA and PCA after oral RLQ in healthy subjects; assay type: in vivo, human; conditions: for AUC(0-inf) / AUC(0-t) / Vd/F / k el / half-life: 8 g; for Vd/F: read-out: Vz/F; for k el: read-out: ke (converted)
Procedure: The study protocol was approved by the Ethics Committee of the Second Affiliated Hospital of Tianjin University of Traditional Chinese Medicine. […] Subjects were offered standard meals at 4 and 10 h after dosing. Water was not permitted during the hour before and the hour after dosing, except for 240 mL administered with dosing; additional water intake was allowed at all other times.
In the single-dose study, 8 g of RLQ was administered orally on day 1. A 7-d washout time was designed between single-dose and multiple-dose pharmacokinetic studies. In the multiple-dose study, subjects received multiple doses of RLQ (8 g, t.i.d.) for seven consecutive days from day 8 to day 14 and a single dose of RLQ (8 g) on the morning of day 15. […] Additional pre-dose samples were collected in the morning on days 12, 13 and 14. […] All samples were stored at −80 °C until analysis.
All analytes were extracted from plasma and urine samples by simple protein precipitation extraction method using acetonitrile. Briefly, 5 µL of internal standard solution and 300 μL of acetonitrile were added to the spiked blank matrix (100 μL) and vortexed for 3 min and then centrifuged at 13,000 × g for 10 min. The supernatant was transferred and dried using a flow of nitrogen. The residue was re-dissolved in 100 µL of 10% methanol solution containing 0.1% formic acid. An aliquot of 5 µL solution was injected into the LC-MS/MS system for analysis.
The chromatographic separation was performed on an Acquity Ultra Performance LC instrument (Waters, Milford, MA) with a gradient programme in an ACQUITY UPLC BEH C18 column (2.1 mm × 100 mm, 1.7 μm). […] The injection volume was 2 µL. The mass spectrometry analysis was performed on an AB Sciex Triple Quad 5500 MS (Framingham, MA) equipped with an ESI source.
The peak plasma concentration (Cmax) and time to reach the peak plasma concentration (Tmax) were calculated from the actual plasma concentration data. The area under the plasma concentration-time curve from zero to the last measurable concentration (AUC0–t) was calculated via the linear trapezoidal rule. AUC0–∞ was calculated using the following formula: AUC0–∞ = AUC0–t + Ct/ke, where Ct is the last plasma concentration measured. […] The accumulation index was calculated as AUCss/AUC0–t.

[3] = target: T2, OCT2 (Homo sapiens, UniProt O15244); experiment: Inhibition of OCT2-mediated 14C-TEA uptake in S2-OCT2 cells; assay type: cell-based; conditions: GA at 150 and 500 μg/L; PCA 100 to 1000 μg/L; p < 0.05 vs control
T2 construct: host or cells: S2 (second portion of proximal tubule) cells
T2 sequence (O15244 1-555): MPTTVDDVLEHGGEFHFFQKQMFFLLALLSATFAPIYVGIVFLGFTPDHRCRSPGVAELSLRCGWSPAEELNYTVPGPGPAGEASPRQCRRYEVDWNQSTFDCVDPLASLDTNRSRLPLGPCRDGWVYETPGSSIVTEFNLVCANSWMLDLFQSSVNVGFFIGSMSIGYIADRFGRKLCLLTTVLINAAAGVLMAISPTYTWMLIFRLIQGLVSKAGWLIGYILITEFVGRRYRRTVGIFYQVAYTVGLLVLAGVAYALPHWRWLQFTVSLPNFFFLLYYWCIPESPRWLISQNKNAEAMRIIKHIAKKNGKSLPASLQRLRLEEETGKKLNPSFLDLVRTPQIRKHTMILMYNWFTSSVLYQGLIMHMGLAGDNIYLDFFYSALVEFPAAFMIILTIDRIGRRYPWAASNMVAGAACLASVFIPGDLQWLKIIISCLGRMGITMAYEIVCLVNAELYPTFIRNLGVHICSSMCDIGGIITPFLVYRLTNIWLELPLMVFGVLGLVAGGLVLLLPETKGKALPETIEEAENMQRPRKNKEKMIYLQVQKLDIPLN
Procedure: as §1, §2

[4] = estimated, 14C-PAH 5 µM, MDCK-OAT1 cells
[5] = both sexes, human, plasma, oral, human plasma, multiple dose RLQ 8 g
[6] = both sexes, human, plasma, oral, human plasma, multiple dose RLQ 8 g, read-out: AUC0–t
[7] = both sexes, human, plasma, oral, human plasma, single dose RLQ 8 g
[8] = both sexes, human, plasma, oral, human plasma, single dose RLQ 8 g, read-out: AUC0–t
[9] = both sexes, human, plasma, oral, multiple dose RLQ 8 g
[10] = both sexes, human, plasma, oral, multiple dose RLQ 8 g, read-out: t1/2 (converted)
[11] = both sexes, human, plasma, oral, single dose RLQ 8 g
[12] = both sexes, human, plasma, oral, single dose RLQ 8 g, read-out: t1/2 (converted)
[13] = both sexes, human, plasma, oral, single dose RLQ 8 g, median (range), read-out: tmax
[14] = both sexes, human, plasma, po, abstract summary, oral RLQ, read-out: half-life
[15] = both sexes, oral, human plasma, multiple dose RLQ 8 g t.i.d. 7 d then single dose, means ± SD, read-out: Cmax
[16] = both sexes, human plasma, single oral dose RLQ 8 g, means ± SD, read-out: Cmax
[17] = human, plasma, oral, single dose RLQ 8 g, female subjects n = 6, read-out: Cmax in women
[18] = human, plasma, oral, single dose RLQ 8 g, male subjects n = 6, read-out: Cmax in men
[19] = multiple dose RLQ 8 g, median (range)

O=C(O)c1cc(O)c(O)c(O)c1 [GA, gallic acid]
IC50 [1, 4]: 3.73 µM | IC50 (OAT1) [1, 4]: 0.6341 µg/mL (≈ 3.73 µM) | time to absorption into the blood after administration ([2]; abstract summary, oral RLQ): ≤ 1 h | AUC(0-inf) [2, 5]: 209 ± 63.5 ng·h/mL | AUC(0-t) [2, 6]: 205 ± 62.8 ng·h/mL | AUC(0-inf) [2, 7]: 256 ± 74.9 ng·h/mL | AUC(0-t) [2, 8]: 251 ± 74.4 ng·h/mL | Vd/F [2, 9]: 292 ± 113 L | k el [2, 9]: 0.00015 s⁻¹ | half-life [2, 10]: 80.4 ± 19.2 min | Vd/F [2, 11]: 241 ± 82.7 L | k el [2, 11]: 0.000147 s⁻¹ | half-life [2, 12]: 82.2 ± 22.2 min | tmax [2, 13]: 45 min | half-life [2, 14]: < 120 min | Cmax [2, 15]: 118 ± 39.5 ng/mL | Cmax [2, 16]: 139 ± 49.4 ng/mL | AUC(0-t) ([2]; female, human, plasma, oral, single dose RLQ 8 g, female subjects, read-out: AUC0–t in women): 301 ± 46.3 ng·h/mL | Cmax [2, 17]: 176 ng/mL | Cmax [2, 18]: 102 ng/mL | AUC(0-t) ([2]; male, human, plasma, oral, single dose RLQ 8 g, male subjects, read-out: AUC0–t in men): 201 ± 63.3 ng·h/mL | CL/F ([2]; multiple dose RLQ 8 g): 152 ± 51.6 L/h | tmax [2, 19]: 0.75 (0.75, 1) h | Vz/F and CL/F, females versus males ([2]; p < 0.05): significantly lower levels in females than in males | CL/F ([2]; single dose RLQ 8 g): 124 ± 42.0 L/h

O=C(O)c1ccc(O)c(O)c1 [PCA, protocatechuic acid]
effect on OCT2-mediated uptake of 14C-TEA [3]: statistical decline | inhibitory effect on OAT1 ([1]; GA 50–5000 μg/L, PCA 10–1000 μg/L): no significant inhibitory effect | response in human plasma and urine samples ([2]; LC-MS/MS after oral RLQ): relatively high response | time to absorption into the blood after administration ([2]; abstract summary, oral RLQ): ≤ 1 h | accumulation ratio (AUCss/AUC0–t) ([2]; after multiple doses, median (range)): 1.04 (0.56–1.51) | AUC(0-inf) [2, 5]: 3.09 ± 0.9 ng·h/mL | AUC(0-t) [2, 6]: 2.81 ± 0.81 ng·h/mL | AUC(0-inf) [2, 7]: 3.64 ± 1.35 ng·h/mL | AUC(0-t) [2, 8]: 3.2 ± 1.17 ng·h/mL | Vd/F [2, 9]: 139 ± 46.1 L | k el [2, 9]: 0.000789 s⁻¹ | half-life [2, 10]: 15.6 ± 4.8 min | Vd/F [2, 11]: 158 ± 101 L | k el [2, 11]: 0.000672 s⁻¹ | half-life [2, 12]: 19.8 ± 8.4 min | tmax [2, 13]: 19.8 min | half-life [2, 14]: < 120 min | Cmax [2, 15]: 5.45 ± 1.58 ng/mL | Cmax [2, 16]: 6.06 ± 2.28 ng/mL | Cmax [2, 17]: 7.58 ng/mL | Cmax [2, 18]: 4.54 ng/mL | CL/F ([2]; multiple dose RLQ 8 g): 379 ± 119 L/h | tmax [2, 19]: 0.33 (0.17, 0.5) h | CL/F ([2]; single dose RLQ 8 g): 337 ± 135 L/h
